The values that follow come from PMC8895007, “Crystal structures of PigF, an O-methyltransferase involved in the prodigiosin synthetic pathway, reveal an induced-fit substrate-recognition mechanism” (IUCrJ, 2022).

Data set [1] addresses T1, PigF (Serratia marcescens, UniProt Q5W249).
T1 construct: residues 3-338 seen in SAH complex
In words: X-ray crystal structure (co-crystallisation), […] A. It is filed as binding. The conditions noted are these: 2 mM SAH premixed 30 min; pH 4.6, 12% MPD; cofactor site in C-terminal catalytic domain.

Data set [2] concerns the molecule itself. In words: native gel or EMSA; nondenaturing gel, comparison with standards; PigF in solution. (In EMSA bound probe runs differently from free probe, usually more slowly.)

Regarding `Nc1ncnc2c1ncn2[C@@H]1O[C@H](CSCC[C@H](N)C(=O)O)[C@@H](O)[C@H]1O` [S-adenosylhomocysteine], the “X-ray crystal structure (co-crystallisation), 1.97 A” value in data set [1] is “the resulting phased map revealed clear electron density for the entire protein molecule and the SAH cofactor”.

B1: PigF, O-methyltransferase of the prodigiosin synthetic pathway from Serratia marcescens FS14 (enzyme)
chain: MPLTKQDAVNQMMGFFQAKALTAALALKLFDQLRDRDADAAHIAARLDCPARSTEQLLIALRAMGYLDQRDGLYHLPAAHRAFLLSDEPQWLGWLGRHIDTFLYPLWGELKTAVRNDAHQRRTVFGDDRSWFDILYQNPDDVADFQEFLGKFAAPFIAGFVRDYDFSQHRAFLDIGSGIGSLPMAIADAYPGIALAICELPQASAFLRDKLTLQGYGERIDVVEGDVISGDLPIGGYDLIHLGWMLHDYAPETQLTILRNIYRAMPAGGRFIASETPLNEDKSGPEFTALLSLNMLVSTDGGIESSAQEYLDRFRLAGFSNARIMKIAGPRTLIVGEK
notes: PigF of Serratia marcescens FS14, 338 amino-acid residues; 100% identical to PigF of S. marcescens VGH107 (NCBI WP 004940222.1); residues 3-338 are seen in both chains of the PigF-SAH structure; Cloned into pET-24b as in Liu et al., 2012; The results call the protein N-terminally polyhistidine-tagged; pET-24b usually adds a C-terminal His tag (surmise); Crystallised with 2 mM SAH (small molecule) …
What is called stoichiometry N is the number of molecules, sites or subunits per partner or assembly. Consider B1, for which the “stoichiometry N” value in data set [2] stood at 2.
